Results taken from ChEMBL document CHEMBL5143529, “Design, synthesis, and biological evaluation of novel (4-(1,2,4-oxadiazol-5-yl)phenyl)-2-aminoacetamide derivatives as multifunctional agents for the treatment of Alzheimer's disease” (Eur J Med Chem, 2022).

Target: Acetylcholinesterase (Electrophorus electricus, UniProt O42275)
Assay: Inhibition of electric eel AChE using acetylthiocholine iodide as substrate preincubated for 20 mins followed by substrate addition and measured after 5 mins by DTNB-reagent based Ellman's method
Details: not given

Sequence of Acetylcholinesterase (O42275 whole entry): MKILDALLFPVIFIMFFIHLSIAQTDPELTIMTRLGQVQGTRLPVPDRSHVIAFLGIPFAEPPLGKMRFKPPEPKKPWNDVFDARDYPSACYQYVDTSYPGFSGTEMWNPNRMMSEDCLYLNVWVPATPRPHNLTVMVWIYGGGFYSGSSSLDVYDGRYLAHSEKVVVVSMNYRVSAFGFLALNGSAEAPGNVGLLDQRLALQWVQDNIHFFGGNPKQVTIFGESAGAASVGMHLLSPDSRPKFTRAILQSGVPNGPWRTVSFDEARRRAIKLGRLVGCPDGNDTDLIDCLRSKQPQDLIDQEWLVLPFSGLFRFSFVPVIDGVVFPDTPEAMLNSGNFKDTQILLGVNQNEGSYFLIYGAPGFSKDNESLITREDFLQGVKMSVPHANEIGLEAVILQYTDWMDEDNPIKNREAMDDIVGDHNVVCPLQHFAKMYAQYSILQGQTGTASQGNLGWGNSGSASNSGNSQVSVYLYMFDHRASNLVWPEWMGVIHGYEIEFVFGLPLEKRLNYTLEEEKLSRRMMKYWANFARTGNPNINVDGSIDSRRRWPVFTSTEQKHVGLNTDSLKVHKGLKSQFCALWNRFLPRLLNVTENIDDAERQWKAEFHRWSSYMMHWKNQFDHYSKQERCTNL

| SMILES | IC50 |
| --- | --- |
| Cc1ccccc1NCC(=O)Nc1ccc(-c2nc(-c3ccnc(Nc4ccc(OC(F)(F)F)cc4)c3)no2)cc1 | > 50 µM |
| O=C(CNc1ccc(C(F)(F)F)cc1)Nc1ccc(-c2nc(-c3ccnc(Nc4ccc(OC(F)(F)F)cc4)c3)no2)cc1 | 46.5 µM |
| O=C(CNC1CCCC1)Nc1ccc(-c2nc(-c3ccnc(Nc4ccc(OC(F)(F)F)cc4)c3)no2)cc1 | > 50 µM |
| O=C(CNc1ccccc1)Nc1ccc(-c2nc(-c3ccnc(Nc4ccc(OC(F)(F)F)cc4)c3)no2)cc1 | > 50 µM |
| O=C(CNCc1cccc(F)c1)Nc1ccc(-c2nc(-c3ccnc(Nc4ccc(OC(F)(F)F)cc4)c3)no2)cc1 | > 50 µM |
| COc1cccc(NCC(=O)Nc2ccc(-c3nc(-c4ccnc(Nc5ccc(OC(F)(F)F)cc5)c4)no3)cc2)c1 | > 50 µM |
| CC(C)CNCC(=O)Nc1ccc(-c2nc(-c3ccnc(Nc4ccc(OC(F)(F)F)cc4)c3)no2)cc1 | > 50 µM |
| O=C(CNCc1ccc(F)cc1)Nc1ccc(-c2nc(-c3ccnc(Nc4ccc(OC(F)(F)F)cc4)c3)no2)cc1 | > 50 µM |
| O=C(CNCc1cccc(Cl)c1)Nc1ccc(-c2nc(-c3ccnc(Nc4ccc(OC(F)(F)F)cc4)c3)no2)cc1 | > 50 µM |
| O=C(CNCc1ccc(C(F)(F)F)cc1)Nc1ccc(-c2nc(-c3ccnc(Nc4ccc(OC(F)(F)F)cc4)c3)no2)cc1 | > 50 µM |

Test system: not listed separately
Assay: Potency index, ratio of resveratrol IC50 to test compound IC50 for inhibition of NO production in LPS-induced mouse BV-2 cells pretreated for 1 hr followed by LPS stimulation and measured after 24 hrs by ELISA
Type: functional
Details: time 25 hrs

| SMILES | Ratio IC50 |
| --- | --- |
| O=C(CNc1ccccc1)Nc1ccc(-c2nc(-c3ccnc(Nc4ccc(OC(F)(F)F)cc4)c3)no2)cc1 | 26 |

Test system: PC-12
Assay: Neuroprotective activity against H202-induced cell death in rat PC-12 cells assessed as cell viability at 5 uM pretreated for 3 hrs followed by H2O2 stimulation and measured after 24 hrs by MTT assay relative to control
Type: functional
Details: time 27 hrs, read-out: Activity

| SMILES | viability at 5 µM |
| --- | --- |
| O=c1c(O)c(-c2ccc(O)c(O)c2)oc2cc(O)cc(O)c12 [QUERCETIN] | 48.2% |
| Cc1ccccc1NCC(=O)Nc1ccc(-c2nc(-c3ccnc(Nc4ccc(OC(F)(F)F)cc4)c3)no2)cc1 | 45.2% |
| O=C(CNc1ccc(C(F)(F)F)cc1)Nc1ccc(-c2nc(-c3ccnc(Nc4ccc(OC(F)(F)F)cc4)c3)no2)cc1 | 55.8% |
| O=C(CNC1CCCC1)Nc1ccc(-c2nc(-c3ccnc(Nc4ccc(OC(F)(F)F)cc4)c3)no2)cc1 | 44.1% |
| O=C(CNc1ccccc1)Nc1ccc(-c2nc(-c3ccnc(Nc4ccc(OC(F)(F)F)cc4)c3)no2)cc1 | 46.9% |
| O=C(CNCc1cccc(F)c1)Nc1ccc(-c2nc(-c3ccnc(Nc4ccc(OC(F)(F)F)cc4)c3)no2)cc1 | 28.1% |
| COc1cccc(NCC(=O)Nc2ccc(-c3nc(-c4ccnc(Nc5ccc(OC(F)(F)F)cc5)c4)no3)cc2)c1 | 30.7% |
| CC(C)CNCC(=O)Nc1ccc(-c2nc(-c3ccnc(Nc4ccc(OC(F)(F)F)cc4)c3)no2)cc1 | 34.1% |
| O=C(CNCc1ccc(F)cc1)Nc1ccc(-c2nc(-c3ccnc(Nc4ccc(OC(F)(F)F)cc4)c3)no2)cc1 | 41.9% |
| O=C(CNCc1cccc(Cl)c1)Nc1ccc(-c2nc(-c3ccnc(Nc4ccc(OC(F)(F)F)cc4)c3)no2)cc1 | 33.4% |
| O=C(CNCc1ccc(C(F)(F)F)cc1)Nc1ccc(-c2nc(-c3ccnc(Nc4ccc(OC(F)(F)F)cc4)c3)no2)cc1 | 25.7% |

Test system: PC-12
Assay: Neuroprotective activity against H202-induced cell death in rat PC-12 cells assessed as cell viability at 20 uM pretreated for 3 hrs followed by H2O2 stimulation and measured after 24 hrs by MTT assay relative to control
Type: functional
Details: time 27 hrs, read-out: Activity

| SMILES | viability at 20 µM |
| --- | --- |
| O=c1c(O)c(-c2ccc(O)c(O)c2)oc2cc(O)cc(O)c12 [QUERCETIN] | 59.4% |
| Cc1ccccc1NCC(=O)Nc1ccc(-c2nc(-c3ccnc(Nc4ccc(OC(F)(F)F)cc4)c3)no2)cc1 | 55.2% |
| O=C(CNc1ccc(C(F)(F)F)cc1)Nc1ccc(-c2nc(-c3ccnc(Nc4ccc(OC(F)(F)F)cc4)c3)no2)cc1 | 61.7% |
| O=C(CNC1CCCC1)Nc1ccc(-c2nc(-c3ccnc(Nc4ccc(OC(F)(F)F)cc4)c3)no2)cc1 | 57% |
| O=C(CNc1ccccc1)Nc1ccc(-c2nc(-c3ccnc(Nc4ccc(OC(F)(F)F)cc4)c3)no2)cc1 | 58.4% |
| O=C(CNCc1cccc(F)c1)Nc1ccc(-c2nc(-c3ccnc(Nc4ccc(OC(F)(F)F)cc4)c3)no2)cc1 | 36.2% |
| COc1cccc(NCC(=O)Nc2ccc(-c3nc(-c4ccnc(Nc5ccc(OC(F)(F)F)cc5)c4)no3)cc2)c1 | 33.7% |
| CC(C)CNCC(=O)Nc1ccc(-c2nc(-c3ccnc(Nc4ccc(OC(F)(F)F)cc4)c3)no2)cc1 | 43.9% |
| O=C(CNCc1ccc(F)cc1)Nc1ccc(-c2nc(-c3ccnc(Nc4ccc(OC(F)(F)F)cc4)c3)no2)cc1 | 48.6% |
| O=C(CNCc1cccc(Cl)c1)Nc1ccc(-c2nc(-c3ccnc(Nc4ccc(OC(F)(F)F)cc4)c3)no2)cc1 | 43.9% |
| O=C(CNCc1ccc(C(F)(F)F)cc1)Nc1ccc(-c2nc(-c3ccnc(Nc4ccc(OC(F)(F)F)cc4)c3)no2)cc1 | 33% |

Test system: not listed separately
Assay: Cytotoxicity against rat PC-12 cells assessed as cell viability at 25 uM incubated for 24 hrs by MTT assay relative to control
Type: toxicity, cell-based
Details: read-out: Activity

| SMILES | viability at 24 h, 25 µM |
| --- | --- |
| O=c1c(O)c(-c2ccc(O)c(O)c2)oc2cc(O)cc(O)c12 [QUERCETIN] | 99.6% |
| Cc1ccccc1NCC(=O)Nc1ccc(-c2nc(-c3ccnc(Nc4ccc(OC(F)(F)F)cc4)c3)no2)cc1 | 99.6% |
| O=C(CNc1ccc(C(F)(F)F)cc1)Nc1ccc(-c2nc(-c3ccnc(Nc4ccc(OC(F)(F)F)cc4)c3)no2)cc1 | 99.9% |
| O=C(CNC1CCCC1)Nc1ccc(-c2nc(-c3ccnc(Nc4ccc(OC(F)(F)F)cc4)c3)no2)cc1 | 99.5% |
| O=C(CNc1ccccc1)Nc1ccc(-c2nc(-c3ccnc(Nc4ccc(OC(F)(F)F)cc4)c3)no2)cc1 | 99.8% |
| O=C(CNCc1cccc(F)c1)Nc1ccc(-c2nc(-c3ccnc(Nc4ccc(OC(F)(F)F)cc4)c3)no2)cc1 | 98.4% |
| COc1cccc(NCC(=O)Nc2ccc(-c3nc(-c4ccnc(Nc5ccc(OC(F)(F)F)cc5)c4)no3)cc2)c1 | 99.5% |
| CC(C)CNCC(=O)Nc1ccc(-c2nc(-c3ccnc(Nc4ccc(OC(F)(F)F)cc4)c3)no2)cc1 | 99.9% |
| O=C(CNCc1ccc(F)cc1)Nc1ccc(-c2nc(-c3ccnc(Nc4ccc(OC(F)(F)F)cc4)c3)no2)cc1 | 100% |
| O=C(CNCc1cccc(Cl)c1)Nc1ccc(-c2nc(-c3ccnc(Nc4ccc(OC(F)(F)F)cc4)c3)no2)cc1 | 99.8% |
| O=C(CNCc1ccc(C(F)(F)F)cc1)Nc1ccc(-c2nc(-c3ccnc(Nc4ccc(OC(F)(F)F)cc4)c3)no2)cc1 | 99.7% |

Test system: not listed separately
Assay: Cytotoxicity against rat PC-12 cells assessed as cell viability at 50 uM incubated for 24 hrs by MTT assay relative to control
Type: toxicity, cell-based
Details: read-out: Activity

| SMILES | viability at 24 h, 50 µM |
| --- | --- |
| O=c1c(O)c(-c2ccc(O)c(O)c2)oc2cc(O)cc(O)c12 [QUERCETIN] | 99.5% |
| Cc1ccccc1NCC(=O)Nc1ccc(-c2nc(-c3ccnc(Nc4ccc(OC(F)(F)F)cc4)c3)no2)cc1 | 99.3% |
| O=C(CNc1ccc(C(F)(F)F)cc1)Nc1ccc(-c2nc(-c3ccnc(Nc4ccc(OC(F)(F)F)cc4)c3)no2)cc1 | 99.7% |
| O=C(CNC1CCCC1)Nc1ccc(-c2nc(-c3ccnc(Nc4ccc(OC(F)(F)F)cc4)c3)no2)cc1 | 98.2% |
| O=C(CNc1ccccc1)Nc1ccc(-c2nc(-c3ccnc(Nc4ccc(OC(F)(F)F)cc4)c3)no2)cc1 | 99.4% |
| O=C(CNCc1cccc(F)c1)Nc1ccc(-c2nc(-c3ccnc(Nc4ccc(OC(F)(F)F)cc4)c3)no2)cc1 | 96.7% |
| COc1cccc(NCC(=O)Nc2ccc(-c3nc(-c4ccnc(Nc5ccc(OC(F)(F)F)cc5)c4)no3)cc2)c1 | 98.3% |
| CC(C)CNCC(=O)Nc1ccc(-c2nc(-c3ccnc(Nc4ccc(OC(F)(F)F)cc4)c3)no2)cc1 | 99.6% |
| O=C(CNCc1ccc(F)cc1)Nc1ccc(-c2nc(-c3ccnc(Nc4ccc(OC(F)(F)F)cc4)c3)no2)cc1 | 99.8% |
| O=C(CNCc1cccc(Cl)c1)Nc1ccc(-c2nc(-c3ccnc(Nc4ccc(OC(F)(F)F)cc4)c3)no2)cc1 | 99.7% |
| O=C(CNCc1ccc(C(F)(F)F)cc1)Nc1ccc(-c2nc(-c3ccnc(Nc4ccc(OC(F)(F)F)cc4)c3)no2)cc1 | 99.4% |

Target: Cholinesterase (Equus caballus, UniProt P81908)
Sequence (P81908 whole entry): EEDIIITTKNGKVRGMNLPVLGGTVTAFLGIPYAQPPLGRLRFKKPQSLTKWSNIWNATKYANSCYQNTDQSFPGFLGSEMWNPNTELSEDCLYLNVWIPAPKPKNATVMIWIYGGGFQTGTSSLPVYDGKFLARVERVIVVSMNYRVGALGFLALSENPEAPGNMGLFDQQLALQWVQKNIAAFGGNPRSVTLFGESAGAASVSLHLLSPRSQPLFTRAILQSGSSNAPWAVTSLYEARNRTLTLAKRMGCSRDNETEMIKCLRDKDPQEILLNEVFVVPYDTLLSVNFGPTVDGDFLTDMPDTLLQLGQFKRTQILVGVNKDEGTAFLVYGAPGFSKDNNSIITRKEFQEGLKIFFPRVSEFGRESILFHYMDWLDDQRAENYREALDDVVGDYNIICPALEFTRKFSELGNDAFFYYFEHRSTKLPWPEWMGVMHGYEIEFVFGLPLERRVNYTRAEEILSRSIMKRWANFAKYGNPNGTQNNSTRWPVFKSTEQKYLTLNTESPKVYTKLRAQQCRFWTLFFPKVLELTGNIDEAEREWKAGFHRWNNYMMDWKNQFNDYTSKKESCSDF
Assay: not given
Details: not given

| SMILES | IC50 |
| --- | --- |
| Cc1ccccc1NCC(=O)Nc1ccc(-c2nc(-c3ccnc(Nc4ccc(OC(F)(F)F)cc4)c3)no2)cc1 | 25.8 µM |
| O=C(CNc1ccc(C(F)(F)F)cc1)Nc1ccc(-c2nc(-c3ccnc(Nc4ccc(OC(F)(F)F)cc4)c3)no2)cc1 | 1.88 µM |
| O=C(CNC1CCCC1)Nc1ccc(-c2nc(-c3ccnc(Nc4ccc(OC(F)(F)F)cc4)c3)no2)cc1 | 16.6 µM |
| O=C(CNc1ccccc1)Nc1ccc(-c2nc(-c3ccnc(Nc4ccc(OC(F)(F)F)cc4)c3)no2)cc1 | 14.1 µM |
| O=C(CNCc1cccc(F)c1)Nc1ccc(-c2nc(-c3ccnc(Nc4ccc(OC(F)(F)F)cc4)c3)no2)cc1 | 45.3 µM |
| COc1cccc(NCC(=O)Nc2ccc(-c3nc(-c4ccnc(Nc5ccc(OC(F)(F)F)cc5)c4)no3)cc2)c1 | 33.5 µM |
| CC(C)CNCC(=O)Nc1ccc(-c2nc(-c3ccnc(Nc4ccc(OC(F)(F)F)cc4)c3)no2)cc1 | 29.4 µM |
| O=C(CNCc1ccc(F)cc1)Nc1ccc(-c2nc(-c3ccnc(Nc4ccc(OC(F)(F)F)cc4)c3)no2)cc1 | 37.8 µM |
| O=C(CNCc1cccc(Cl)c1)Nc1ccc(-c2nc(-c3ccnc(Nc4ccc(OC(F)(F)F)cc4)c3)no2)cc1 | > 50 µM |
| O=C(CNCc1ccc(C(F)(F)F)cc1)Nc1ccc(-c2nc(-c3ccnc(Nc4ccc(OC(F)(F)F)cc4)c3)no2)cc1 | 30.9 µM |

Test system: not listed separately
Assay: cells
Details: Mus musculus, BV-2
Description: Inhibition of NO production in LPS-induced mouse BV-2 cells pretreated for 1 hr followed by LPS stimulation and measured after 24 hrs by ELISA

| SMILES | IC50 |
| --- | --- |
| Oc1ccc(/C=C/c2cc(O)cc(O)c2)cc1 [RESVERATROL] | 11 µM |
| Cc1ccccc1NCC(=O)Nc1ccc(-c2nc(-c3ccnc(Nc4ccc(OC(F)(F)F)cc4)c3)no2)cc1 | 8.74 µM |
| O=C(CNc1ccc(C(F)(F)F)cc1)Nc1ccc(-c2nc(-c3ccnc(Nc4ccc(OC(F)(F)F)cc4)c3)no2)cc1 | 1.61 µM |
| O=C(CNC1CCCC1)Nc1ccc(-c2nc(-c3ccnc(Nc4ccc(OC(F)(F)F)cc4)c3)no2)cc1 | 2.66 µM |
| O=C(CNc1ccccc1)Nc1ccc(-c2nc(-c3ccnc(Nc4ccc(OC(F)(F)F)cc4)c3)no2)cc1 | 0.42 µM |
| O=C(CNCc1cccc(F)c1)Nc1ccc(-c2nc(-c3ccnc(Nc4ccc(OC(F)(F)F)cc4)c3)no2)cc1 | 13 µM |
| COc1cccc(NCC(=O)Nc2ccc(-c3nc(-c4ccnc(Nc5ccc(OC(F)(F)F)cc5)c4)no3)cc2)c1 | 13.2 µM |
| CC(C)CNCC(=O)Nc1ccc(-c2nc(-c3ccnc(Nc4ccc(OC(F)(F)F)cc4)c3)no2)cc1 | 3.88 µM |
| O=C(CNCc1ccc(F)cc1)Nc1ccc(-c2nc(-c3ccnc(Nc4ccc(OC(F)(F)F)cc4)c3)no2)cc1 | 9.23 µM |
| O=C(CNCc1cccc(Cl)c1)Nc1ccc(-c2nc(-c3ccnc(Nc4ccc(OC(F)(F)F)cc4)c3)no2)cc1 | 14.6 µM |
| O=C(CNCc1ccc(C(F)(F)F)cc1)Nc1ccc(-c2nc(-c3ccnc(Nc4ccc(OC(F)(F)F)cc4)c3)no2)cc1 | 8.48 µM |
